Assay: gradient 5% acetonitrile 3 min, to 50% in 2 min, to 85% in 15 min, held 3 min, 100 µL/min
Settings: column: Zorbax Extend-C18 2.1 x 50 mm; eluents: water / acetonitrile, 0.1% formic acid
In short: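 Values are retention times taken from adduct peaks that software picked and an analyst inspected. The pure standards were run as mixtures of ~100 molecules on HPLC linked to a quadrupole time-of-flight mass spectrometer, in positive and negative ionization mode. A Zorbax Extend-C18 column (2.1 × 50 mm, 1.8 μm) was used at 100 μL/min with water and acetonitrile, each including 0.1% formic acid.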

RP-LC retention time [s] | SMILES
772 | CCOc1ccccc1C(=O)Nc1cccn2cnnc12
672 | CC1CCCCN1CCNC(=O)c1cc2c(s1)N(C)CCCC2 (centres undefined)
776 | O=C(NCCc1csc(-c2ccccc2)n1)C1CCN(S(=O)(=O)c2cccs2)CC1
1260 | Cc1ccc(-c2nc(-c3ccc(S(=O)(=O)N4CCCC4)cc3)no2)cc1F
954 | COCCN1C(=O)c2ccccc2C(C(=O)NCC2COc3ccccc3O2)C1c1ccc(F)cc1 (centres undefined)
1010 | CNC(=O)c1c(NC(=O)c2ccccc2Cl)sc2c1CCC2
927 | CCCOc1ccccc1C(=O)N(Cc1ccc(Br)o1)C1CCS(=O)(=O)C1 (centres undefined)
784 | CCc1onc(C)c1C1CCCN1C(=O)c1cccc(F)c1 (centres undefined)
585 | CCc1nc2c(=O)n(CC(=O)N3CCN(c4ccccn4)CC3)nc(C)c2s1
679 | CN(C(=O)Cn1nc(Cc2cccnc2)c2ccccc2c1=O)c1ccc(Br)cc1
906 | CCOc1ccc(N2C(=O)C3N=NN(Cc4nc(-c5ccc(OC)c(OC)c5)no4)C3C2=O)cc1 (centres undefined)
759 | Cc1sc2ccn(Cc3ccc(F)cc3)c(=O)c2c1C(=O)NC1CC1
784 | CCC(C)NC(=O)c1ccc2c(c1)Sc1ncccc1C(=O)N2C(C)C (centres undefined)
1020 | COc1ccc(Cc2c(C)nn(-c3nc(C)c(C(=O)N4CCOCC4)s3)c2C)cc1
1110 | Cc1ccc(CNC(=O)Cn2nc(N3CCCC(C)C3)c3ccccc3c2=O)cc1 (centres undefined)
859 | Cc1nn(Cc2ccc(C(=O)NC3CC3)cc2)c(C)c1S(=O)(=O)N1CCC(C)CC1
915 | COC(=O)c1cc2c(=O)n(-c3cccc(Cl)c3Cl)ccc2nc1C
584 | CN(C)c1ccc(CNC(=O)C2CCN(Cc3cn(C)c4ccc(Cl)cc34)CC2)cc1
1100 | CCOC(=O)c1ccccc1NC(=O)C1CCCN(c2cc(-n3cccn3)ncn2)C1 (centres undefined)
661 | O=C(C1CCN(c2cnn(Cc3ccccc3)c(=O)c2)CC1)N1CCOCC1
809 | Cc1ccc(C)c(NC(=O)C2CCN(C(=O)c3ncn4c3COC(c3ccc(F)cc3)C4)CC2)c1 (centres undefined)
820 | CCCC(=O)Nc1cc2c(cc1N1CCC(C)CC1)n(C)c(=O)c(=O)n2C

RP-LC retention time [s] | SMILES
608 | CCNC(=O)Nc1ccc2c(c1)CN(Cc1sccc1C)CCO2
1110 | COc1cc(CNC(=O)c2cc(C(C)(C)C)n3nccc3n2)cc(OC)c1
750 | COc1ccc(NC(=O)C2CCCN(C(=O)C3Sc4ccccc4NC3=O)C2)cc1 (centres undefined)
789 | CCOC(=O)CNC(=O)N(C)CCc1noc(-c2ccc(Cl)cc2)n1
663 | Cc1cc(C(=O)NCc2ccco2)c2c(=O)n(C)c(=O)n(C)c2n1
959 | CCOC(=O)c1ccc2nc(NC(=O)c3cccc([N+](=O)[O-])c3)sc2c1
797 | Cn1c(=O)c2cc(C(=O)Nc3ccc(F)cc3Cl)sc2n(C)c1=O
726 | O=C(c1ccsc1)N1CCCCC1c1nncn1Cc1ccccc1 (centres undefined)
890 | CCOc1ccc(CCNC(=O)C2CCCN2C(=O)OCc2ccccc2)cc1OCC (centres undefined)
1270 | Cc1cccc(-c2noc(Cn3ncn4nc(-c5cc(C)ccc5C)cc4c3=O)n2)c1
1050 | CCn1ncc(NC(=O)COc2ccc(C(C)C)cc2)c(N2CCOCC2)c1=O
872 | CCCC(C)NC(=O)c1ccc2c(c1)CCCN2S(=O)(=O)CC (centres undefined)
561 | Cn1ncc2c3ccccc3n(CC(=O)NCCCN3CCCCCC3)c2c1=O
778 | COc1ccc(-c2cn3cccnc3n2)cc1NC(=O)c1ccc(C(F)(F)F)cc1
578 | CCNC(=O)N1CCCC(Cn2cnc3cccnc32)C1 (centres undefined)
736 | NS(=O)(=O)c1ccc(CCNC(=O)Cc2cc(-c3cc4ccccc4o3)on2)cc1
769 | Cc1nc(-c2nnn(-c3ccccc3)c2C)no1
878 | C#CCCOC(=O)Nc1ccccc1
1290 | Cc1ccc(-c2nc(C)cc(SCC(=O)Nc3ccccc3Br)n2)cc1
689 | Cc1ccc(-c2cc3n(n2)CCCN(C(=O)c2ccncc2)C3)cc1
579 | O=C(NCc1ccccn1)C1CCCN(c2ncnc3c2oc2ccccc23)C1 (centres undefined)
935 | COc1cccc(Cn2nc3n(Cc4ccc(C)cc4)c(=O)c4nn(C)cc4n3c2=O)c1

RP-LC retention time [s] | SMILES
730 | Cc1nnc2cc(N3CCN(S(=O)(=O)c4cccc(C(F)(F)F)c4)CC3)cnn12
646 | O=[N+]([O-])c1ccccc1S(=O)(=O)Nc1cccc(-c2ccc(N3CCOCC3)nn2)c1
612 | CC1CCCN(CCCNC(=O)C2CCN(S(=O)(=O)c3ccc4c(c3)sc(=O)n4C)CC2)C1 (centres undefined)
745 | Cc1noc(C2(NC(=O)C3CCC3)CCCCC2)n1
610 | CC(C)N1CCN(C(=O)c2ccc(CN3CCN(Cc4ccccc4)C(=O)C3=O)cc2)CC1
638 | CCn1c(=O)c(=O)n(CC(=O)NCCc2ccco2)c2cccnc21
712 | COc1ccc2[nH]c(=O)c(CCC(=O)O)cc2c1
560 | Cn1c(N)c(C(=O)c2ccco2)c(=O)n(C)c1=O
744 | O=C(Nc1cccn2c(C3CCC3)nnc12)c1ccc2c(c1)OCO2
674 | CCc1nnc([C@@H]2CC(F)(F)CN2C(=O)Cc2cc(C)no2)o1
1100 | CCOc1cccc(C2c3[nH]c4ccccc4c3CCN2C(=O)C2CC2)c1 (centres undefined)
744 | CCN1C(=O)Cc2ccccc2C1C(=O)NCc1cccc(F)c1 (centres undefined)
1150 | Cc1ccccc1-c1noc(Cn2c(=O)n(Cc3ccc(F)cc3)c(=O)c3sccc32)n1
750 | CCC(=O)N1CCc2sc(C(=O)NCc3ccc(F)cc3)cc2C1
1030 | CCC(=O)N1CCc2c(-c3ccccc3)cccc2[C@H]1C
780 | COc1cccc(CNC(=O)CN2C(=O)NC(c3ccccc3Cl)C3=C2COC3=O)c1 (centres undefined)
716 | COc1ccc(OC)c(NC(=O)NC2CCN(c3ccc(F)cc3)C2=O)c1 (centres undefined)
822 | Cc1cccc(NC(=O)C2CCCN2S(=O)(=O)c2cc3c(cc2Cl)NC(=O)CO3)c1 (centres undefined)
953 | Cc1ccc(-c2nc(C)cc3nn(CC(=O)Nc4cccc(Br)c4)c(=O)n23)cc1
942 | Cc1cc(OCC(=O)NCc2ccc3c(c2)OCO3)nc(-c2ccc(F)cc2)n1
558 | COC[C@@H]1CN(Cc2c(C)n[nH]c2C)C[C@H]1c1ccccn1
659 | O=C(c1cc(-c2ccccn2)n[nH]1)N1CCN(C(=O)C2CCCCC2)CC1

RP-LC retention time [s] | SMILES
560 | CCN1CCN(c2cc(C)c3cc(NC(=O)c4ccco4)ccc3n2)CC1
1240 | Cc1nn(-c2ccc(Cl)cc2)c2nc(N3CCCC(C(=O)NCc4cccc(F)c4)C3)sc12 (centres undefined)
752 | CCCS(=O)(=O)N1CCc2[nH]nc(-c3ccccc3)c2C1
973 | COc1cccc(-c2noc(Cc3nnc(-c4ccc(Cl)cc4)o3)n2)c1OC
1300 | Cc1ccc(-c2nnc(-c3nc(NCCC4=CCCCC4)c4ccccc4n3)o2)cc1
835 | COc1ccc(OC)c(-c2cn3ccn(-c4cccc(F)c4)c(=O)c3n2)c1
1150 | COc1cc(Cl)c(C)cc1NC(=O)c1c(C)cc(C)cc1C
764 | COc1ccc(NC(=O)N2CCC3(CC2)N=C(c2ccccc2)C(=O)N3)c(OC)c1
1020 | O=C(Cn1cnc2c(sc3nc(-c4ccccc4)ccc32)c1=O)Nc1ccccc1Cl
590 | O=C(CN1CC(c2nc(-c3cccc(Cl)c3)no2)C1)NCC1CCCO1 (centres undefined)
748 | CCn1cnc(S(=O)(=O)N2CCCC(C(=O)Nc3ccc(C)cc3)C2)c1 (centres undefined)
854 | CC(C)c1ccc(N2C(=O)CN(Cc3ccccc3)C3CS(=O)(=O)CC32)cc1 (centres undefined)
873 | CCN(CC)C(=O)C1CCN(S(=O)(=O)c2ccc3c(c2)sc(=O)n3C(C)C)CC1
674 | O=C(NC1CC1)C1CCN(c2nc3ncn(CC(=O)N4CCc5ccccc5C4)c(=O)c3s2)CC1
654 | COc1ccc2ncc(S(=O)(=O)c3ccc(C)c(C)c3)c(N3CCN(C)CC3)c2c1
623 | CNC(=O)CCc1cc2cc(C)ccc2[nH]c1=O
1100 | Cc1ccc(NC(=O)CSc2cc(N3CCCC(C)C3)ncn2)c(C)c1 (centres undefined)
1040 | CCCn1c(=O)c(C)nc2cc(-c3noc(COc4ccc(OC)cc4)n3)ccc21
876 | CCn1nccc1C(=O)Nc1cc(-c2cc3ccccc3n2CC)[nH]n1
641 | Cc1cc(N2CCOCC2)n2nc(CN3CCC(Cc4ccccc4)CC3)nc2n1
623 | COc1ccc(-n2nc(C(=O)N3CCN(c4ccccn4)CC3)c(=O)n(C)c2=O)cc1

SMILES | RP-LC retention time [s]
CCC(C)[C@H](NC(=O)N1C[C@H]2C[C@@H](C1)c1cccc(=O)n1C2)C(=O)OC (some centres undefined) | 624
O=C(Cn1c(=O)oc2ccccc21)N1[C@H]2CC[C@@H]1c1cnc(-c3ccc(F)cc3)nc1C2 | 912
